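Following 48 hours of exposure in 96-well plates, responses at five concentrations were used to interpolate endpoints linearly. TGI: total growth inhibition.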 Where a SMILES comes first, the peptide text is derived from it. The star is where a group is joined. Cbz = O=C(OCc1ccccc1)*; Boc = CC(C)(C)OC(=O)*; OBn = c1ccc(CO*)cc1
Legend:
Assay in all cases: NCI anticancer screen, dose series, 48 h
MOLT-4 leukemia = test system: MOLT-4 leukemia
OVCAR-3 ovarian = test system: OVCAR-3 ovarian
LOX IMVI melanoma = test system: LOX IMVI melanoma
RPMI-8226 leukemia = test system: RPMI-8226 leukemia
MALME-3M melanoma = test system: MALME-3M melanoma
CCRF-CEM leukemia = test system: CCRF-CEM leukemia
CAKI-1 renal = test system: CAKI-1 renal
786-0 renal = test system: 786-0 renal
A498 renal = test system: A498 renal
SF-539 CNS = test system: SF-539 CNS
U251 CNS = test system: U251 CNS
HT29 colon = test system: HT29 colon
TK-10 renal = test system: TK-10 renal
SNB-19 CNS = test system: SNB-19 CNS
HOP-92 NSCLC = test system: HOP-92 NSCLC
NCI-H460 lung = test system: NCI-H460 lung

| SMILES | TGI (MOLT-4 leukemia) [µM] | TGI (OVCAR-3 ovarian) [µM] | TGI (LOX IMVI melanoma) [µM] | TGI (RPMI-8226 leukemia) [µM] | TGI (MALME-3M melanoma) [µM] | TGI (CCRF-CEM leukemia) [µM] | TGI (CAKI-1 renal) [µM] | TGI (786-0 renal) [µM] | TGI (A498 renal) [µM] | TGI (SF-539 CNS) [µM] | TGI (U251 CNS) [µM] | TGI (HT29 colon) [µM] | TGI (TK-10 renal) [µM] | TGI (SNB-19 CNS) [µM] | TGI (HOP-92 NSCLC) [µM] | TGI (NCI-H460 lung) [µM] |
| --- | --- | --- | --- | --- | --- | --- | --- | --- | --- | --- | --- | --- | --- | --- | --- | --- |
| COc1cc([C@@H]2c3cc4c(cc3[C@@H](N=Cc3ccc(C(=O)O[C@H]5C[C@H]6OC[C@@]6(OC(C)=O)[C@H]6[C@H](OC(=O)c7ccccc7)[C@]7(O)C[C@H](OC(=O)[C@H](OC(=O)c8ccc(C=N[C@@H]9c%10cc%11c(cc%10[C@@H](c%10cc(OC)c(O)c(OC)c%10)[C@H]%10C(=O)OC[C@@H]%109)OCO%11)cc8)[C@@H](NC(=O)c8ccccc8)c8ccccc8)C(C)=C([C@@H](OC(C)=O)C(=O)[C@]56C)C7(C)C)cc3)C3COC(=O)C32)OCO4)cc(C)c1O (stereo partly specified) | > 50 | > 31.9 | > 50 | > 50 | > 50 | > 50 | > 50 | > 50 | 29.2 | > 37.8 | > 31.6 | > 25.2 | > 50 | > 50 | > 50 | > 50 |
| CCOC(=O)/C(C#N)=N\Nc1ccc(-n2c(C)nc3ccc(Br)cc3c2=O)cc1 | > 100 | > 100 | > 100 | > 100 | – | > 100 | > 100 | > 100 | > 100 | > 100 | > 100 | > 100 | > 100 | > 100 | > 100 | > 100 |
| CC1C2CC(CC2=O)C1(C)C (stereo unspecified) | > 100 | > 100 | – | – | > 100 | > 100 | > 100 | > 100 | > 100 | > 100 | > 100 | > 100 | > 100 | > 100 | > 100 | > 100 |
| COC(=O)C1CCCCCCCCCCC12SCCCS2 (stereo unspecified) | 45 | 41 | 35.4 | – | 37.6 | 51.1 | 96.3 | 28.5 | 49.7 | 47.4 | 32.1 | 91.5 | 41.6 | 83.2 | 39.9 | > 100 |
| COc1ccc(-n2c(-c3ccccc3)cc(-c3cccs3)c2-c2cccs2)cc1 | > 100 | > 100 | > 100 | > 100 | – | 32.7 | > 100 | > 100 | > 100 | > 100 | > 100 | > 100 | > 100 | – | > 100 | > 100 |
| O=c1[nH]nc(Cc2ccc(Cl)cc2)n1Nc1ccccc1 | > 100 | > 100 | > 100 | – | > 100 | > 100 | > 100 | > 100 | > 100 | > 100 | > 100 | > 100 | > 100 | > 100 | > 100 | > 100 |
| CC(=O)N(CCc1ccccc1)C(C)(C#N)c1ccccc1 (stereo unspecified) | > 100 | > 100 | > 100 | > 100 | > 100 | > 100 | > 100 | > 100 | > 100 | > 100 | > 100 | > 100 | > 100 | > 100 | > 100 | – |
| CCOC(=O)CC(=O)Nc1c(C(=O)OCC)sc2nc(SC)nc(Nc3ccc(OC)c(OC)c3)c12 | – | 40.1 | > 100 | – | > 100 | > 100 | > 100 | 37 | 82.4 | 69.2 | 25.1 | > 100 | > 100 | – | 33.7 | – |
| Cc1[nH]c2ncn(N)c(=N)c2c1Cc1ccccc1 | > 100 | > 100 | > 100 | > 100 | > 100 | > 100 | > 100 | > 100 | > 100 | > 100 | > 100 | > 100 | > 100 | > 100 | 87.8 | – |
| Cc1oc2nc(N(C)C)n3c(C)nnc3c2c1C | > 100 | – | > 100 | > 100 | – | > 100 | > 100 | > 100 | > 100 | > 100 | > 100 | > 100 | > 100 | > 100 | > 100 | – |
| O=C1NCC2=C1CCC1c3ccccc3CCN21 (stereo unspecified) | > 100 | > 100 | > 100 | – | > 100 | > 100 | > 100 | > 100 | > 100 | > 100 | > 100 | > 100 | > 100 | > 100 | > 100 | > 100 |
| O=C(CN1c2ccccc2Sc2ccccc21)n1cnc2ccccc21 | > 100 | > 100 | > 100 | > 100 | > 100 | > 100 | – | > 100 | > 100 | > 100 | > 100 | > 100 | > 100 | > 100 | 93.9 | > 100 |
| O=C(O)c1ccccc1/C=C1\Cc2ccc3c(c2C1=O)CCCC3 | 58.6 | > 100 | > 100 | 60.8 | > 100 | 66.2 | – | > 100 | 89 | 81.6 | > 100 | > 100 | > 100 | > 100 | 47.6 | > 100 |
| COc1cc(/C=C2\N=C(c3ccccc3)N(/N=C/c3cc4cc(C)ccc4nc3Cl)C2=O)ccc1O | 47.8 | > 100 | > 100 | 80.8 | – | 36 | > 100 | > 100 | 55.3 | > 100 | > 100 | > 100 | > 100 | > 100 | > 100 | > 100 |
| Cc1c(O)c(OC2OC(CO)C(O)C(O)C2O)cc2c1CC[C@@H]1C2(C)C(=O)C[C@]2(C)[C@@H]([C@@](C)(O)C(O)CCC(C)(C)O)[C@H](O)C[C@@]12C (stereo partly specified) | > 100 | > 100 | > 100 | – | > 100 | > 100 | > 100 | > 100 | > 100 | > 100 | > 100 | > 100 | > 100 | > 100 | > 100 | > 100 |
| c1ccc(NC2(c3nnnn3C3CCCCC3)CCNCC2)cc1 | 43.5 | – | 30.7 | 59.6 | 32.4 | 55.4 | – | 28.6 | 51 | 30 | 31.5 | 35.8 | 33.3 | 42.5 | 32.3 | 31.7 |
| COC(=O)C(CCCCNC(=O)OCc1ccccc1)NC(=O)C(CCC(=O)OCc1ccccc1)NC(=O)OC(C)(C)C (stereo unspecified) (Boc-Glu(OBn)-Lys(Cbz)-OMe; configuration not given here) | > 100 | > 100 | > 100 | > 100 | > 100 | – | > 100 | > 100 | 66.5 | > 100 | > 100 | > 100 | > 100 | > 100 | > 100 | – |
| CCCNc1c(Cl)cc(Cl)c2[nH]c3ccccc3c(=O)c12 | > 100 | > 100 | > 100 | > 100 | 75.3 | > 100 | > 100 | > 100 | > 100 | > 100 | > 100 | > 100 | > 100 | 65.7 | 35 | – |
| c1ccc2c(-c3ccnc(-c4c[nH]c5ccccc45)n3)c[nH]c2c1 | 5.84 | > 100 | 10.1 | 4.61 | – | 3.32 | 74.6 | 4.6 | 5.33 | > 100 | 14.2 | 7.33 | > 100 | > 100 | 5.83 | > 100 |
| C/C(O)=C/c1nc2sc(C)c(C)c2c(=O)s1 | – | > 100 | > 100 | > 100 | > 100 | > 100 | > 100 | > 100 | > 100 | > 100 | > 100 | > 100 | > 100 | > 100 | > 100 | – |
| CC1(C)O[C@@H]([C@@H](O)[C@H](O)C2SCCCS2)[C@@H](CO)O1 | > 100 | > 100 | > 100 | > 100 | > 100 | > 100 | > 100 | > 100 | > 100 | – | > 100 | > 100 | > 100 | > 100 | > 100 | > 100 |
| COc1ccc2c(c1)CC[C@@H]1C2CC[C@]2(C)C(=O)N(C)C(=O)CC12 (stereo partly specified) | > 100 | > 100 | – | – | > 100 | > 100 | > 100 | > 100 | > 100 | > 100 | > 100 | > 100 | > 100 | > 100 | > 100 | > 100 |
| CSc1ccc(C=C2N=C(c3ccccc3)N(c3cc(C(=O)c4ccccc4)ccc3N3C(=O)/C(=C/c4ccc(SC)cc4)N=C3c3ccccc3)C2=O)cc1 | > 100 | 55.1 | > 100 | > 100 | – | 62.4 | > 100 | > 100 | > 100 | 79.5 | > 100 | > 100 | > 100 | > 100 | > 100 | > 100 |
| COC(=O)[C@@H](COC(=O)/C=C/c1ccc(OC(C)=O)c(OC(C)=O)c1)NC(=O)/C=C/c1ccc(OC(C)=O)c(OC(C)=O)c1 | > 100 | 50 | 38.1 | > 100 | 29.2 | > 100 | 48.1 | 73.7 | > 100 | 74.7 | > 100 | 88 | – | > 100 | > 100 | 47 |
| Cc1c(/C=N\NC(=S)N(C)CCN(C)C(=S)N/N=C\c2c(C)n(C)n(-c3ccccc3)c2=O)c(=O)n(-c2ccccc2)n1C | > 100 | > 100 | – | – | > 100 | – | > 100 | > 100 | > 100 | > 100 | > 100 | > 100 | > 100 | > 100 | > 100 | > 100 |
| Cc1cc2c(cc1-c1cc3c(cc1C)C(C(C)C)=C(O)C(=O)/C3=C\Nc1cccc3c(N)cccc13)/C(=C/Nc1cccc3c(N)cccc13)C(=O)C(O)=C2C(C)C | > 100 | > 100 | > 100 | > 100 | > 100 | > 100 | > 100 | > 100 | > 100 | – | > 100 | > 100 | > 100 | > 100 | > 100 | > 100 |
| CN(C)c1ccc(C=Nc2ccc(-c3nc4ccccc4o3)cc2)cc1 | 78.8 | 51.4 | > 100 | – | > 100 | – | – | > 100 | > 100 | > 100 | > 100 | > 100 | > 100 | > 100 | > 100 | 98.7 |
| COC(=O)C(NC(=O)C12CCC(C)(C(=O)O1)C2(C)C)c1cc(C(C)(C)C)c(O)c(C(C)(C)C)c1 (stereo unspecified) | > 100 | > 100 | > 100 | > 100 | > 100 | > 100 | > 100 | > 100 | > 100 | > 100 | > 100 | > 100 | > 100 | > 100 | > 100 | – |
